Assay results reported in PubChem BioAssay AID2765 (Broad Institute, 2010).
Active and inactive are the calls of the source.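 Rule for the calls: active = half-maximal concentration for the rise in caspase light signal at or below ten times the top tested dose; inconclusive = flat fit between 30% and 70% activity, or unreliable curve fit; inactive = the rest.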

These molecules were tested on MEF A1-2A-BIM cells, caspase 3/7 luminescence, 3 h (assay: inducers of caspase signal in A1-dependent MEFs – cell-based, luminescence, retest, A1 inhibitor project, dose response (AID 2765)).
For `COC(=O)CCC(=O)c1ccc(OC)c(Cl)c1`, the EC50 was > 35 µM (inactive). `CCCCCCCC/C=C\CCCCCCCC(=O)NCCc1ccc(O)c(O)c1` showed an EC50 of 8.06 µM. With `CN(CC(=O)Nc1ccccc1Cl)CC(=O)Nc1cccc2ccccc12` the EC50 was > 35 µM (inactive). In the case of `Cc1ccc(NC(=O)COC(=O)CCc2c(C)nc3ncnn3c2C)cc1C`, the EC50 is reported as > 35 µM (inactive). For `COc1ccccc1NC(=O)CC1COc2ccccc2O1` (stereo not given), the EC50 was > 35 µM (inactive). In the case of `CCS(=O)(=O)c1nc2ccccc2n1Cc1ccccn1`, the EC50 is reported as > 35 µM (inactive). With `Cc1ccc(S(=O)(=O)NCC(=O)OC2CCOC2=O)cc1` (stereo not given) the EC50 was > 35 µM (inactive). With `Cc1ccc(OCC(O)CN2CCN(CCO)CC2)c(C)c1` (stereo not given) the EC50 was > 35 µM (inactive). For `COc1cccc(C(=O)NCC(=O)N/N=C/c2ccc(OC(=O)c3cccs3)c(OC)c2)c1`, the EC50 was > 35 µM (inactive). In the case of `CN(CCc1ccccc1)C(=O)c1cccc(NC(=O)Cc2cccc([N+](=O)[O-])c2)c1`, the EC50 is reported as > 35 µM (inactive). In the case of `CCN1CCN(c2nc3ccccc3nc2NS(=O)(=O)c2ccc(NC(C)=O)cc2)CC1`, the EC50 is reported as > 35 µM (inactive). In the case of `Cc1cccc(NC(=O)CSc2nc(C)c(CC(=O)c3ccc(Br)cc3)c(C)c2C#N)c1C`, the EC50 is reported as > 35 µM (inactive). `Cc1cc(Nc2ccc(Cl)cc2)n2ncnc2n1` was tested, and the EC50 was > 35 µM (inactive). With `Cc1ccc(C=C2C(Cl)=C(Cl)C(Cl)=C2Cl)cc1` the EC50 was 7.19 µM. With `O=C(Cn1[nH]c(=O)c2ccccc2c1=O)OCC(=O)N1CCc2ccccc2C1` the EC50 was > 35 µM (inactive). `COc1ccccc1-c1cn[nH]c1-c1ccc(OCc2ccccc2)cc1O` was tested, and the EC50 was > 35 µM (inactive). With `Cc1cccc(N(C)C(=O)CCS(=O)(=O)c2cccc3nonc23)c1` the EC50 was > 35 µM (inactive). With `COc1ccc(CCNC(=O)C2=COCCO2)cc1` the EC50 was > 35 µM (inactive). With `CC1(C)C[C@H](O)[C@]2(CO)[C@H](O)C[C@]3(C)C(=CCC4[C@@]5(C)CC[C@H](O)C(C)(C)C5CC[C@]43C)[C@@H]2C1` (stereo not given in full) the EC50 was > 35 µM (inactive). In the case of `Cc1ccc2c(c1)C(=O)C(=O)N2Cc1ccc(Cl)cc1`, the EC50 is reported as > 35 µM (inactive). In the case of `FC(F)(F)c1ccc(Cl)c(NC2=NCCCCC2)c1`, the EC50 is reported as > 35 µM (inactive). With `COC(=O)[C@]1(C)CCC[C@@]2(C)C3CC[C@@]4(C)C[C@]3(CCC21)CC4=NO` (stereo not given in full) the EC50 was > 35 µM (inactive). In the case of `CCOC(=O)[C@H]1[C@H]2COc3ccc(OC)cc3[C@@H]2N2C(=O)CN(CC3CCCO3)C(=O)[C@@]12C` (stereo not given in full), the EC50 is reported as > 35 µM (inactive). Molecule `COc1cc(/C=C/[N+](=O)[O-])ccc1OC(=O)c1cccnc1` has an EC50 of 12.5 µM. `CCOc1ccc(N2CC(C(=O)NNC(=O)c3ccc(Br)cc3)CC2=O)cc1` (stereo not given) was tested, and the EC50 was > 35 µM (inactive). For `Cc1cc(Oc2ccc(=O)[nH]n2)nc(Cl)n1`, the EC50 was > 35 µM (inactive). In the case of `COc1c(Br)cc([N+](=O)[O-])c(OC)c1C(=O)NC(=O)Nc1nc(C)cc(C)n1`, the EC50 is reported as > 35 µM (inactive). With `COc1cc2ncnc(NCc3ccc(F)cc3)c2cc1OC` the EC50 was > 35 µM (inactive). `CC(Oc1ccc(-c2nccc(-c3ccccn3)n2)cc1)C(=O)NN` (stereo not given) was tested, and the EC50 was > 35 µM (inactive). `COc1ccc(C(=O)/C=C/C(=O)N(CC(=O)NC2CCCCC2)Cc2cccs2)c(O)c1` was tested, and the EC50 was > 35 µM (inactive). In the case of `CCc1ccc(NC(=O)c2nc(S(=O)(=O)Cc3ccccc3)ncc2Cl)cc1`, the EC50 is reported as > 35 µM (inactive). `CCOc1ccc(-n2c(SCC(=O)Nc3ccc(Br)cc3)nc3n[nH]c(C)c3c2=N)cc1` gave an EC50 of 21.6 µM. With `CC(=O)Nc1ccc(SC[C@H](Cc2ccccc2)N2CC[C@@H](C(C)(C)C)CCC2=O)cc1` the EC50 was > 35 µM (inactive). `CCN(CC)CCN(C(=O)c1cc2c(ccc3ccccc32)oc1=O)c1nc2cc3c(cc2s1)OCCO3` gave an EC50 of 8.31 µM. For `O=C(c1ccccc1)N1CCN(S(=O)(=O)c2ccccc2)CC1`, the EC50 was > 35 µM (inactive). With `Cc1ccc(C(=O)NCC(=O)OC(C)C(=O)Nc2ccc(N(C)C)cc2)s1` (stereo not given) the EC50 was > 35 µM (inactive). In the case of `COc1ccccc1N1CCN(S(=O)(=O)CCNC(=O)c2cc(OC)c(OC)c(OC)c2)CC1`, the EC50 is reported as > 35 µM (inactive). In the case of `C[C@H](NC(=O)OC(C)(C)C)C(=O)NCC1CCC(C(=O)N[C@@H](Cc2ccccc2)C(=O)O)CC1` (stereo not given in full), the EC50 is reported as > 35 µM (inactive). In the case of `CC1=NNC(=O)/C1=C\c1cn(-c2ccccc2)nc1-c1ccccc1`, the EC50 is reported as 11.8 µM. For `COC(=O)N(NC(=O)C(O)(c1ccccc1)c1ccccc1)c1ccc(C)cc1`, the EC50 was > 35 µM (inactive). With `CN(CC(=O)O)S(=O)(=O)c1ccc2oc3ccccc3c2c1` the EC50 was > 35 µM (inactive). `O=C1C(=O)N(C/C=C/c2ccccc2)c2ccccc21` was tested, and the EC50 was > 35 µM (inactive). For `O=C(NCCOC(=O)c1ccc(Cl)c(S(=O)(=O)N2CCCCC2)c1)c1ccncc1`, the EC50 was > 35 µM (inactive). With `CC(C)(C)C#CC(CCc1ccccc1)OS(N)(=O)=O` (stereo not given) the EC50 was > 35 µM (inactive). In the case of `COc1ccc(C(=O)Nc2ccc(NC(C)=O)cc2)cc1S(=O)(=O)N1CCCCC1C` (stereo not given), the EC50 is reported as > 35 µM (inactive). With `Cc1cc(N2C(=O)C(O)=C(C(=O)c3cc4ccccc4o3)C2c2ccc(Br)cc2)no1` (stereo not given) the EC50 was > 35 µM (inactive). In the case of `CC1Cc2ccccc2N1C(=O)c1ccc2c(c1)nnn2C` (stereo not given), the EC50 is reported as > 35 µM (inactive). `c1ccc(Cc2nn3c(Cn4nnc5ccccc54)nnc3s2)cc1` was tested, and the EC50 was > 35 µM (inactive). Work on `CC(=O)OC[C@]12CC[C@H]3[C@@](C)(CC[C@H]4C(C)(C)CCC[C@]34C)[C@@H]1C[C@@H](C1=CC(=O)O[C@@H]1OC(C)=O)O2` yielded an EC50 of 4.98 µM. With `Cc1noc(C)c1S(=O)(=O)N(C)C[C@H]1Oc2ccc(NC(=O)CCC(F)(F)F)cc2C(=O)N([C@H](C)CO)C[C@@H]1C` the EC50 was > 35 µM (inactive). In the case of `CCc1cc(=O)oc2cc(C)cc(OCC(=O)NC3CCN(Cc4ccccc4)CC3)c12`, the EC50 is reported as > 35 µM (inactive). With `NC(=S)NNC(=O)/C(=C/c1ccc(Br)cc1)NC(=O)c1ccccc1` the EC50 was > 35 µM (inactive). With `C/C(=N\NC(=O)CCC(=O)NCc1ccccc1)c1ccco1` the EC50 was > 35 µM (inactive). In the case of `O=C(Nc1ccc(N2CCN(C(=O)c3ccco3)CC2)cc1)c1cccs1`, the EC50 is reported as > 35 µM (inactive). `CCCCNC(=O)c1ccc(Cn2c(=S)[nH]c3c([nH]c4ccc(OC)cc43)c2=O)cc1` showed an EC50 of 5.24 µM. For `CCCCn1nc(C)c(C(=O)O)c1Cl`, the EC50 was > 35 µM (inactive). In the case of `Cc1c(C(=O)O)sc2nc(-c3cccs3)cc(C(F)(F)F)c12`, the EC50 is reported as > 35 µM (inactive). In the case of `CCCc1nc2sc3c(c2c(=O)n1N)CCC3`, the EC50 is reported as > 35 µM (inactive). For `OC(Cn1cncn1)(Cn1cncn1)c1ccc(F)cc1F`, the EC50 was > 35 µM (inactive). `CC(C)C(=O)Nc1cc(S(=O)(=O)N2CCOCC2)ccc1N1CCCCC1` was tested, and the EC50 was > 35 µM (inactive). `COc1ccc(-n2ncc3c2CC(C)(C)CC3NC(=O)Cc2nonc2C)cc1` (stereo not given) was tested, and the EC50 was > 35 µM (inactive). `CCOc1ccccc1C(=O)N[C@H](C(=O)OCc1cc([N+](=O)[O-])cc2c1OCOC2)C(C)C` was tested, and the EC50 was > 35 µM (inactive). In the case of `Cc1c(C(=O)O)cccc1N1C(=O)Nc2ccccc2N1O`, the EC50 is reported as > 35 µM (inactive). In the case of `Fc1ccc(NC(=S)NCc2ccccc2Cl)cc1`, the EC50 is reported as > 35 µM (inactive). In the case of `O=C1N/C(=C/c2ccc(N3CCOCC3)o2)C(=O)N1c1cccc(Cl)c1`, the EC50 is reported as > 35 µM (inactive). In the case of `CCOC(=O)CSc1nnc(Cc2ccc(OC)cc2)n1-c1ccccc1`, the EC50 is reported as > 35 µM (inactive). For `O=C1C2C3C=CC(CO)(O3)C2C(=O)N1c1ccc(-c2ccccc2)cc1` (stereo not given), the EC50 was > 35 µM (inactive). `Cc1c(O)c(=O)ccn1Cc1ccccc1` was tested, and the EC50 was > 35 µM (inactive). For `CC(=O)Nc1ccc(C(=O)CN2C(=O)NC3(CCCc4ccccc43)C2=O)c(F)c1` (stereo not given), the EC50 was > 35 µM (inactive). With `COc1cccc(-c2cc(C(F)(F)F)c(C#N)c(=O)[nH]2)c1` the EC50 was > 35 µM (inactive). For `Cc1ccc(/C=C/C(=O)c2ccc([N+](=O)[O-])o2)cc1`, the EC50 was > 35 µM (inactive). With `Cc1occc1-c1nnc(SCC(=O)NCCc2ccccc2)n1Cc1ccccc1` the EC50 was > 35 µM (inactive). In the case of `COc1ccc(C)cc1S(=O)(=O)n1cnc2ccccc21`, the EC50 is reported as > 35 µM (inactive). In the case of `CC(C)CC(NC(N)=O)C(=O)OCC(=O)Nc1ccc(SC(F)F)cc1` (stereo not given), the EC50 is reported as > 35 µM (inactive). `COc1ccccc1CCCNC(=O)C1CCC(=O)N(Cc2ccccc2F)C1` (stereo not given) was tested, and the EC50 was > 35 µM (inactive). With `COc1ccc(CCNC(=O)CSc2nc(-c3ccc(OC)c(OC)c3)ccc2C#N)cc1` the EC50 was > 35 µM (inactive). In the case of `COc1cc(/C=C(/C#N)C(=O)NCCc2c[nH]c3ccccc23)ccc1OCc1ccccc1F`, the EC50 is reported as > 35 µM (inactive). For `CCS(=O)(=O)c1nc2ccccc2n1Cc1ccccc1Cl`, the EC50 was > 35 µM (inactive). For `COC(=O)CSc1nc(N)c2c3c(sc2n1)C(c1ccccc1)SC(c1ccccc1)C3` (stereo not given), the EC50 was > 35 µM (inactive). For `Cc1cc(C(C#N)c2ccc(Cl)cc2)c(Cl)cc1NC(=O)c1cc(I)cc(I)c1O` (stereo not given), the EC50 was > 35 µM (inactive). `N#Cc1c(C(F)(F)F)cc(-c2ccccc2)nc1SCC(=O)Nc1sc2c(c1C#N)CCC2` was tested, and the EC50 was > 35 µM (inactive). `CC(C)N(C(=O)CSc1ccc(S(=O)(=O)N2CCCCC2)cn1)C(C)C` was tested, and the EC50 was > 35 µM (inactive). In the case of `COc1ccc(C(=O)Nc2ccc(S(=O)(=O)NC(C)=O)cc2)cc1[N+](=O)[O-]`, the EC50 is reported as > 35 µM (inactive). With `COc1ccc(-c2oc(=O)c3cc(OC)c(OC)cc3c2/C=C/c2cccc([N+](=O)[O-])c2)cc1` the EC50 was > 35 µM (inactive). For `CCOC(=O)CCCNS(=O)(=O)c1c(C)ccc2nsnc12`, the EC50 was > 35 µM (inactive). In the case of `CC(C)[C@H](NC(=O)[C@@H]1Cc2ccccc2CN1C(=O)OC(C)(C)C)C(=O)NC1CCCC1`, the EC50 is reported as > 35 µM (inactive). `CC1=NOC(=O)/C1=C\c1ccc(-c2cccc(Cl)c2)o1` was tested, and the EC50 was > 35 µM (inactive). `CN(c1ccccc1C(=O)Nc1cccc(C(F)(F)F)c1)S(C)(=O)=O` was tested, and the EC50 was > 35 µM (inactive). For `CCOc1cc(C(=O)CSc2nnc(CNc3ccc(Cl)cc3)o2)ccc1NC(=O)CC`, the EC50 was 16 µM. In the case of `CC(=O)Nc1ccc(S(=O)(=O)NCCc2ccccn2)cc1`, the EC50 is reported as > 35 µM (inactive). `CC(C)=C1C2C=CC1C1C(=O)N(c3ccc4c(c3)OCO4)C(=O)C21` (stereo not given) was tested, and the EC50 was > 35 µM (inactive). `CC(=O)n1nc2nc(C)cc(C)c2c1N` was tested, and the EC50 was > 35 µM (inactive). With `O=C(Nc1cccc([N+](=O)[O-])c1)Nc1ccc2c(c1)CCC2` the EC50 was > 35 µM (inactive). With `COc1ccc(S(=O)(=O)N2CCCCC2C)cc1` (stereo not given) the EC50 was > 35 µM (inactive). `CONC(=O)c1cc(OCC(F)(F)F)ccc1OCC(F)(F)F` was tested, and the EC50 was > 35 µM (inactive).
